Experimental data published in the NIST ThermoML archive (doi:10.1016/j.jct.2011.01.008).
Numbers after ± are expanded uncertainties.

Columns and labels:
[1] = Liquid; for mass density: 96 kPa, Vibrating tube method; for vapor or sublimation pressure: Index of refraction calibration data
[2] = xn = mol fraction of the nth substance listed; details: 96 kPa, Liquid, Vibrating tube method, x2 = 0
[3] = refractive index (Na D-line) (dimensionless); xn = mol fraction of the nth substance listed; details: 298.15 K; 96 kPa; Liquid; Standard Abbe refractometry; x2 = 0

Compound | mass density ([1]; 298.14 K) [kg/m3] | mass density ([1]; 298.15 K) [kg/m3] | mass density ([1]; 308.15 K) [kg/m3] | mass density ([1]; 313.15 K) [kg/m3] | mass density ([2]; 288.16 K) [kg/m3] | mass density ([2]; 293.16 K) [kg/m3] | mass density ([2]; 298.14 K) [kg/m3] | mass density ([2]; 303.14 K) [kg/m3] | mass density ([2]; 308.15 K) [kg/m3] | mass density ([2]; 313.15 K) [kg/m3] | refractive index [3] | mass density ([1]; 303.15 K) [kg/m3] | further results
CCOS(=O)(=O)[O-].CCn1cc[n+](C)c1 [1-ethyl-3-methylimidazolium ethyl sulfate] | 1236.86 ± 3 | 1236.86 ± 3 | 1229.9 ± 2.9 | 1226.73 ± 2.9 | – | – | – | – | – | – | – | – | mass density ([1]; 288.16 K): 1243.72 ± 3 kg/m3; mass density ([1]; 293.16 K): 1239.95 ± 3 kg/m3; mass density ([1]; 303.14 K): 1233.58 ± 2.9 kg/m3; mass density ([1]; 318.16 K): 1223.17 ± 2.9 kg/m3; mass density ([1]; 323.15 K): 1219.99 ± 2.9 kg/m3
CCOS(=O)(=O)[O-].CCn1cc[n+](C)c1 [1-ethyl-3-methylimidazolium ethyl sulfate] + CCC=O | – | – | – | – | 1243.72 ± 3 | 1239.95 ± 3 | 1236.86 ± 3 | 1233.58 ± 2.9 | 1229.9 ± 2.9 | 1226.73 ± 2.9 | 1.4817 ± 0.0008 | – | –
CCOS(=O)(=O)[O-].CCn1cc[n+](C)c1 [1-ethyl-3-methylimidazolium ethyl sulfate] + CCCCC=O | – | – | – | – | 1243.72 ± 3 | 1239.95 ± 3 | 1236.86 ± 3 | 1233.58 ± 2.9 | 1229.9 ± 2.9 | 1226.73 ± 2.9 | 1.4817 ± 0.0008 | – | mass density ([2]; 318.16 K): 1223.17 ± 2.9 kg/m3; mass density ([2]; 323.15 K): 1219.99 ± 2.9 kg/m3
CCCCC=O [pentanal] | 804.73 ± 0.24 | 804.73 ± 0.24 | 795.17 ± 0.24 | – | – | – | – | – | – | – | – | 799.97 ± 0.24 | mass density ([1]; 288.15 K): 814.15 ± 0.24 kg/m3; mass density ([1]; 293.14 K): 809.45 ± 0.24 kg/m3; mass density ([1]; 313.14 K): 790.33 ± 0.24 kg/m3; mass density ([1]; 318.14 K): 785.46 ± 0.24 kg/m3; mass density ([1]; 323.14 K): 780.55 ± 0.24 kg/m3; vapor or sublimation pressure ([1]; 376.2 K): 101.3 ± 1 kPa
CCC=O [propanal] | – | 794.85 ± 0.24 | – | 776.53 ± 0.24 | – | – | – | – | – | – | – | 788.72 ± 0.24 | mass density ([1]; 288.14 K): 807.26 ± 0.24 kg/m3; mass density ([1]; 293.15 K): 801.06 ± 0.24 kg/m3; mass density ([1]; 308.16 K): 782.55 ± 0.24 kg/m3; vapor or sublimation pressure ([1]; 321.2 K): 101.3 kPa
